The target in data set [1] is T1, β-glucuronidase (Homo sapiens, UniProt P08236).
T1 sequence (P08236 23-651): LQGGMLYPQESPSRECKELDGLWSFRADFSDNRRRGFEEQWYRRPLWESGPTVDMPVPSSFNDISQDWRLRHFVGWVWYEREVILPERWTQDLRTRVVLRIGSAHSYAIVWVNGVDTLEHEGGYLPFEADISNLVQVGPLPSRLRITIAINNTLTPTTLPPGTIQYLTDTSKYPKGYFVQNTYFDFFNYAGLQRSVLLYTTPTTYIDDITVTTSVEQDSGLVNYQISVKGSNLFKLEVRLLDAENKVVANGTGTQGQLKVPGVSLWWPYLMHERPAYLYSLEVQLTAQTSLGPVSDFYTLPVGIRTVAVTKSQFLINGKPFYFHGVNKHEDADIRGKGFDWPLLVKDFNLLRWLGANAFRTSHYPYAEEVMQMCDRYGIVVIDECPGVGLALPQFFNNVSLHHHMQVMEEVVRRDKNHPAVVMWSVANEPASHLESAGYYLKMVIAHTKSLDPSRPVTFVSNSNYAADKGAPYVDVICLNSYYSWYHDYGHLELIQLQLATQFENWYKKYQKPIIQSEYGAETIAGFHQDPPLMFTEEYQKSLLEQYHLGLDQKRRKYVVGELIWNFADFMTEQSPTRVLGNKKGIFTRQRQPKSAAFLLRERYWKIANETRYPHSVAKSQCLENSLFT
The settings on record: background statement; cited from earlier work.

For data set [2], the system named is PQQ/Heme-ALDH (4). As to the kind of experiment: Substrate specificity of PQQ/Heme-ALDH (4). The settings on record: McIlvaine buffer pH 8.0, relative to sodium D-gluconate set to be 100. The format is biochemical, Pseudogluconobacter saccharoketogenes. On the procedure:
(§1) • Substrate solution: 0.2 M sodium glyoxylate solution (adjusted to pH 8.0 with sodium hydroxide) • Buffer: McIlvaine buffer (pH 8.0)
(§2) Other reagents and preparation methods thereof and measurement procedures are in accordance with the measurement of ADH (1) activity.
Each substrate (D-glucose, sodium D-gluconate, sodium D-glucuronate, intermediate A, sodium salt of intermediate B, sodium glyoxylate) was dissolved in McIlvaine buffer (pH 8.0) and the activity of ALDH was measured as described in Example 1 to study the substrate specificity of PQQ/Heme-ALDH (4). The enzyme activity for each substrate is expressed as a relative activity to the activity measured with sodium D-gluconate as a substrate that was set to be 100.

Data set [3] relates to PQQ-ADH (1). As to the kind of experiment: Substrate specificity of PQQ-ADH (1). It is filed as biochemical, Pseudogluconobacter saccharoketogenes. The settings on record: McIlvaine buffer pH 5.0, relative to D-glucose set to be 100. On the procedure:
(§3) The culture solution (1 mL) was centrifuged at 10,000 rpm for 5 minutes to recover the cells. The cells were resuspended in 1 mL of 0.9% saline. The cell suspension was appropriately diluted in 0.9% saline to obtain a crude enzyme solution. In a test tube 250 μL of the buffer, 500 μL of the substrate solution and 50 μL of the crude enzyme solution were placed and preliminarily heated to 30° C. for 5 minutes.
(§4) To the mixture 200 μL of the potassium ferricyanide solution was added to initiate oxidation reaction. After 10 minutes, 500 μL of the reaction termination solution was added to terminate the reaction. The reaction solution was added with 3.5 mL of pure water, left to stand in the dark at room temperature for 20 minutes and measured for the absorbance at 660 nm. For the control, pure water was used instead of the substrate solution. In this measurement, 1 U is defined as the amount of enzyme required to oxidize 1 μM of the substrate per minute.
Each substrate (D-glucose, sodium D-gluconate, sodium D-glucuronate, intermediate A, sodium salt of intermediate B) was dissolved in McIlvaine buffer (pH 5.0) and the activity of ADH was measured as described in Example 1 to study the substrate specificity of PQQ-ADH (1). The enzyme activity for each substrate is expressed as a relative activity to the activity measured with D-glucose as a substrate that was set to be 100.

Data set [4] relates to PQQ-ALDH (2). The data set can be described thus: Substrate specificity of PQQ-ALDH (2). Particulars: McIlvaine buffer pH 8.0, relative to sodium salt of intermediate B set to be 100. The format is biochemical, Pseudogluconobacter saccharoketogenes. On the procedure: as §1, §2
Each substrate (D-glucose, sodium D-gluconate, sodium D-glucuronate, intermediate A, sodium salt of intermediate B, sodium glyoxylate) was dissolved in McIlvaine buffer (pH 8.0) and the activity of ALDH was measured as described in Example 1 to study the substrate specificity of PQQ-ALDH (2). The enzyme activity for each substrate is expressed as a relative activity to the activity measured with the sodium salt of intermediate B as a substrate that was set to be 100.

Data set [5] deals with ALDH (2 and 3). The data set can be described thus: Measurement of activity of ALDH (2 and 3) (potassium ferricyanide method, sodium glyoxylate substrate, pH 8.0). The format is biochemical, Pseudogluconobacter saccharoketogenes. On the procedure:
as §3, §4
2) Measurement of Activity of ALDH (2 and 3)
as §1, §2

Data set [6] relates to ADH (1). The data set can be described thus: Measurement of activity of ADH (1) (potassium ferricyanide method, glucose substrate, pH 5.0). It is filed as biochemical, Pseudogluconobacter saccharoketogenes. The settings on record: ADH (1) activity. On the procedure: 1) Measurement of Activity of ADH (1)
• Substrate solution: 0.2 M glucose solution • Buffer: McIlvaine buffer (pH 5.0) • Potassium ferricyanide solution: 0.1 M potassium ferricyanide solution • Reaction termination solution: 5 g of ferric sulphate and 95 mL of phosphoric acid were dissolved in pure water and adjusted to 1 L. <Measurement Procedures>
as §3, §4

Structures can show the parent of a compound that is named as a salt.

For the molecule `O=C(O)[C@@H](O)[C@@H](O)[C@H](O)[C@@H](O)C(=O)O` [D-glucaric acid], the “inhibition of β-glucuronidase” value in data set [1] is given as “strongly inhibit”.

Consider `O=C[C@H](O)[C@@H](O)[C@H](O)[C@H](O)CO` [D-glucose], for which the Relative activity in data set [2] (0.2M substrate) is given as 35.1%; in data set [3] (0.2M substrate), 100%; in data set [4] (0.2M substrate), 11.8%.

Consider `O=C[C@@H](O)[C@@H](O)[C@H](O)[C@@H](O)C=O` [intermediate A, D-glucaraldehyde], for which the Relative activity in data set [2] (0.02M substrate) is recorded as 11.6%; in data set [3] (0.02M substrate), 59.1%; in data set [4] (0.02M substrate), 476%.

On to `O=C([O-])[C@H](O)[C@@H](O)[C@H](O)[C@H](O)CO.[Na+]` [sodium D-gluconate], for which the Relative activity in data set [2] (0.2M substrate) is on record as 100%; in data set [3] (0.2M substrate), 88.6%; in data set [4] (0.2M substrate), below 1%.

Take `O=C[C@H](O)[C@@H](O)[C@H](O)[C@H](O)C(=O)[O-].[Na+]` [sodium D-glucuronate]: the results for the Relative activity in data set [2] (0.2M substrate), in data set [3] (0.2M substrate) and in data set [4] (0.2M substrate) were 2.9%, below 1% and 18.6%, respectively.

Take `O=CC(=O)[O-].[Na+]` [sodium glyoxylate, reference compound]: the Relative activity in data set [2] (0.2M substrate) is 20,260%; in data set [4] (0.2M substrate) it was 3,050%.

As to `O=C[C@@H](O)[C@@H](O)[C@H](O)[C@@H](O)C(=O)O` [sodium salt of intermediate B, L-guluronic acid], the Relative activity came out at 21.1% in data set [2] (0.2M substrate), 2.7% in data set [3] (0.2M substrate) and 100% in data set [4] (0.2M substrate).

B1: PQQ/Heme-ALDH (4): ALDH (3) enzyme with the highest activity, contains PQQ and Heme c, SEQ ID NO: 3 (protein)
chain: MTIRLKTLLAFTAITTLALPAFAQDAAAPAAPAARTYKPVTNDMILNPPAEEWISWRRTVDNQGYSPLDLINKDIVKNLELAWAWPMAADGQQEAAPLVHDGIMFLSTNQNIIQALDAKTGDLIWEYRHVLPELPTSWGYQLNQARRQKNSIALYDDKVIVATADAKLVALDAATGKVAWETQVYDTQKGYSYTVGPLIVGDTAVYGPAGGEYGIRGWLEFIAAHDAKTGKEIWRFNTIDDPKNPEQEASWNGVPPENRWGGTPWTTGSYDPRTNTTFWGVGMPGPYSQLIRGSGEGPVLYTNNTLALDADTGERKWNFSHLPADNWDLDSPFERILVDEGQGDAAKHLLVTVPGKDGIAFGLDRDTGKYLWSRDTVYQNVVKNIDAEGKVTLNSDLVPTAVNQEVFVCTSVSGGKLWMTGAYSPKTQTYYVPLAEACNTVTPTVTEFTAGNAVGATKFGPRVLPPNITNGGVVEAINVADGARKWRLEQRPTFSSSLLAKAKVLVPRRLNGMLATGGDLETGQVVWKTRLNAPIGGYPMTYEIDGEQYLAVPTGFSAQASSSASMFPEIPVPSGSGNSLFVFKLRNDTQTASK
modifications: PQQ and heme c cofactors; Pseudogluconobacter
B1: the Specific activity in data set [5] (enzyme purified from K591s strain, ALDH (3) activity) is 27,661 U/mg.

B2: PQQ-ALDH (2): specific pyrroloquinoline quinone-dependent aldehyde dehydrogenase, amino acid sequence of SEQ ID NO: 2 (protein)
chain: MYRKGSVLTVSALVLGLCTSSVWAQQAPTTNALDNLTPVTSVWAQQAPTTNALDNLTPVTGWGYSPLDQINKDNVDKLQLVWSWGLSPGGTTQETPLVHDGVMFVQNSSHLIQALDAGTGELLWQYQYSLPTGVNPAGQRSKALYGDNLIFATRDAHIVAVNAKTGKLAWDQQVADYKKGWGYSSGPLVADGTIIQGMTNCGNGEPGGCFITGHDPATGKELWRLNTIASGDTPEGNSWNGLPQMSRYGASAWITGSYDPDQNIVFAGVGQPYPWPAVLNGLLPKSTDSKYTNNAAYTDSTLAIEPKTGALKWYHQYLATDTLDLDYVYERLLVDLPVKGEATKQVITAGKLAIIESLDRTSGKWLWAHETVPQNVVSAIDPVTGEKTINPDVIPQVGKTTVNCPADPGGRAWQATSFSPKTQMMYMPTVEFCSNTDVNPLDPGQVYTGGGLATFNRVPRPDSDGNIGQVRAINLADQTDAWMYRQHAPVTTSTLPTGGGLVFVGTLDRKLIAFDDTTGKILWTSPKLDNAIESFPVTFTAGDKQYVAVVTNWSSGLGRLKSITPDVQLPQDNPHTVYVFALPDTK
modifications: Pseudogluconobacter
Take B2: the Specific activity in data set [5] (enzyme purified from Rh47-3 strain, ALDH (2) activity) is 8,928 U/mg.

B3: PQQ-ADH (1): specific pyrroloquinoline quinone-dependent alcohol dehydrogenase, amino acid sequence of SEQ ID NO: 1 (protein)
chain: MLKQSLLASGLAALCVAAMGSLSLAAETTSERLLNAGSEAENGNWLMVHRTYDSHRFSPLSEINKDTIKDLGLASVTILDNASRGGRYASARNEGTPLVEDGFMYLQSGWSVVYKLDVRDGKTAKVVWKYDPEVDRQWVSDATCCGAENRGIGLWNDDVVALTMDGRVMSINKDTGELNWEKQRADKARAESFTGAPLIIGDTAVYGPAGGEYGIRGWLEAIDLKTGDVAWRTYTVPGPGEPGNDTWQGNAWETGGASIWQTGSYDPDTGMTYWGTGNPAPQIDAEYRPGDNLYASSLLALDAKDGALKWHFQFTPNDPYDYDEIGDNQLLDVSVDGKPSKMVVRAARNGFMYGFNRLDGAMTYAKQYVEDLTWTTGIDPKTGKPLEYDPKAQLQKYVAGTVGSREGNPGIYCPTLGGGKNWQPAAYSPNTKLLYVTSAEGCSAYVPEAAPNPTTTGGEYDVVKAQREWNGRLPAPEGTKLPDVFNGGSVKAIDPLTGETKAKVLVPRRLNGMLATGGDLVWSSGTDGNLYAYDANTLETVWTFNVGTALGGPPMSYSVDGKQYVAVLAGAAASAADKKVAPQSEFFVPADALYIFALK
modifications: Pseudogluconobacter
Turning to B3, the Specific activity is on record as 36.0 U/mg in data set [6] (enzyme purified from K591s strain) and 38.6 U/mg in data set [6] (enzyme purified from Rh47-3 strain).

These data come from US12241112B2, “D-glucaric acid producing bacterium, and method for manufacturing D-glucaric acid” (Ensuiko Sugar Refining Co., Ltd., priority 2012, dated 2025).
